According to patent EP0765662A1, “HIV GROWTH INHIBITORY COMPOSITION” (Kochi, Mutsuyuki, priority 1994, dated 1995):
Where a name gives a salt, the structure may show the parent alone.

Test system: HIVBRU
Assay: Formation of giant cells from HIV-infected Molt-4 cells (mixed cultivation, microscopic observation)
Type: cell-based
Details: mixed cultivation of HIV-infected and HIV-non-infected Molt-4 cells; 20 hours of the cultivation; read-out: concentration of SBA that can inhibit the formation of the giant cells
Method: In the tests above, the replication of the viral particles of HIV was examined in terms of the amount of the p24 antigen protein produced and appearing in the culture supernatant from the cultivated cells. Thus, the amount of the p24 antigen produced was measured periodically over 6 days after the A3.01 cells were infested with HIV. It was then observed that in the absence of SBA, the replication of the viral particles of HIV was induced in the A3.01 cells by stimulation with 10 units/ml of TNF-α added. […] Thus, the effective amount of SBA has the activity to inhibit the replication of the viral particles of HIV within the cells to an extent as same as AZT, and from this it is expected that SBA is useful similarly to AZT for the therapeutic treatments of AIDS. (d) Tests for evaluating an inhibitory activity of SBA to the formation of giant cells from HIV-infected Molt-4 cells In a similar manner to that in the above Test (c), Molt-4 cells (a CD4-positive human T-cell strain) were infected with AIDS virus, HIVBRU. Thereafter, The HIV-infected Molt-4 cells were mixed with such Molt-4 cells which had no HIV-infection. And the mixture of these cells were cultivated at a high density of the mixed cells in the above-mentioned improved RPM1-1640 medium containing SBA at its different concentrations. […]

O=C1O[C@H]([C@@H]2COC(c3ccccc3)O2)C(O)=C1O (stereo partly drawn) [SBA, 5,6-O-benzylidene-L-ascorbic acid mono-sodium salt]
minimal effective concentration: ≥ 10 µg/mL
